# Data from US9113629B2, “4-amino-6-(4-substituted-phenyl)-picolinates and 6-amino-2-(4-substituted-phenyl)-pyrimidine-4-carboxylates and their use as herbicides” (DOW AGROSCIENCES LLC, priority 2013, dated 2015).
# What was measured:
# Assay in all cases: Post-emergent Test III, herbicidal activity in wheat and barley
# Assay type in all cases: in vivo
# [1] = test system: SASKR: Russian thistle (Salsola iberica); conditions: 21 days after application; for pest or weed control at 35 g/ha: 35 g ai/ha; for pest or weed control at 70 g/ha: 70 g ai/ha; for GR50 SASKR / GR80 SASKR: probit analysis; for GR50 SASKR: dose for 50 percent growth reduction; for GR80 SASKR: dose for 80 percent growth reduction
# Procedure, shortened: (§1)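 GR20, GR50, GR80 and GR90 come from probit analysis of visual injury scores (0 = none, 100 = complete kill) taken 21 d after treatment. Foliar application was by track sprayer delivering 187 L/ha at five rates, from high down to 1/16×, onto greenhouse plants at the 2–3 leaf stage, with solvent-blank controls.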
# [2] = test system: VERPE: bird's-eye speedwell (veronica persica); conditions: 21 days after application; for pest or weed control at 35 g/ha: 35 g ai/ha; for pest or weed control at 70 g/ha: 70 g ai/ha; for GR50 VERPE / GR80 VERPE: probit analysis; for GR50 VERPE: dose for 50 percent growth reduction; for GR80 VERPE: dose for 80 percent growth reduction
# Procedure, shortened: as §1
# [3] = test system: VIOSS: wild pansy (Viola tricolor), field violet (Viola arvensis); conditions: 21 days after application; for pest or weed control at 35 g/ha: 35 g ai/ha; for pest or weed control at 70 g/ha: 70 g ai/ha; for GR50 VIOSS / GR80 VIOSS: probit analysis; for GR50 VIOSS: dose for 50 percent growth reduction; for GR80 VIOSS: dose for 80 percent growth reduction
# Procedure, shortened: as §1
# [4] = test system: TRZSS: wheat, including spring and winter (Triticum aestivum); conditions: 21 days after application; for pest or weed control at 35 g/ha: 35 g ai/ha; for pest or weed control at 70 g/ha: 70 g ai/ha; for GR20 TRZSS: probit analysis, dose for 20 percent growth reduction (crop)
# Procedure, shortened: as §1
# [5] = test system: KCHSC: kochia (Kochia scoparia); conditions: 21 days after application; for pest or weed control at 35 g/ha: 35 g ai/ha; for pest or weed control at 70 g/ha: 70 g ai/ha; for GR50 KCHSC / GR80 KCHSC: probit analysis; for GR50 KCHSC: dose for 50 percent growth reduction; for GR80 KCHSC: dose for 80 percent growth reduction
# Procedure, shortened: as §1
# [6] = test system: MATSS: scented mayweed (Matricaria chamomilla), pineappleweed (Matricaria matricarioides); conditions: 21 days after application; for pest or weed control at 35 g/ha: 35 g ai/ha; for pest or weed control at 70 g/ha: 70 g ai/ha; for GR50 MATSS / GR80 MATSS: probit analysis; for GR50 MATSS: dose for 50 percent growth reduction; for GR80 MATSS: dose for 80 percent growth reduction
# Procedure, shortened: as §1
# [7] = test system: HORSS: barley, including spring and winter (Hordeum vulgare); conditions: 21 days after application; for pest or weed control at 35 g/ha: 35 g ai/ha; for pest or weed control at 70 g/ha: 70 g ai/ha; for GR20 HORSS: probit analysis, dose for 20 percent growth reduction (crop)
# Procedure, shortened: as §1
# [8] = Salsola tragus, post-emergence, 504 h, read-out: Visual Gorowth Reduction (%) 21 days After Application SASKR
# [9] = Veronica persica, post-emergence, 504 h, read-out: Visual Gorowth Reduction (%) 21 days After Application VERPE
# [10] = Viola tricolor, post-emergence, 504 h, read-out: Visual Gorowth Reduction (%) 21 days After Application VIOSS
# [11] = Triticum aestivum, post-emergence, 504 h, read-out: Visual Gorowth Reduction (%) 21 days After Application TRZSS
# [12] = Bassia scoparia, post-emergence, 504 h, read-out: Visual Gorowth Reduction (%) 21 days After Application KCHSC
# [13] = Matricaria chamomilla, post-emergence, 504 h, read-out: Visual Gorowth Reduction (%) 21 days After Application MATSS
# [14] = Hordeum vulgare, post-emergence, 504 h, read-out: Visual Gorowth Reduction (%) 21 days After Application HORSS
Structure (SMILES),"pest or weed control at 35 g/ha [1, 8] [%]","pest or weed control at 70 g/ha [1, 8] [%]",GR50 SASKR [1] [g ai/ha],GR80 SASKR [1] [g ai/ha],"pest or weed control at 35 g/ha [2, 9] [%]","pest or weed control at 70 g/ha [2, 9] [%]",GR50 VERPE [2] [g ai/ha],GR80 VERPE [2] [g ai/ha],"pest or weed control at 35 g/ha [3, 10] [%]","pest or weed control at 70 g/ha [3, 10] [%]",GR50 VIOSS [3] [g ai/ha],GR80 VIOSS [3] [g ai/ha],"pest or weed control at 35 g/ha [4, 11] [%]","pest or weed control at 70 g/ha [4, 11] [%]",GR20 TRZSS [4] [g ai/ha],"pest or weed control at 35 g/ha [5, 12] [%]","pest or weed control at 70 g/ha [5, 12] [%]",GR50 KCHSC [5] [g ai/ha],GR80 KCHSC [5] [g ai/ha],"pest or weed control at 35 g/ha [6, 13] [%]",other results
COC(=O)c1nc(-c2ccc(I)c(F)c2)c(F)c(N)c1Cl [Compound 132],75 to 84,75 to 84,1,66,0 to 29,75 to 84,58,99,95 to 100,95 to 100,9,17,60 to 74,60 to 74,10,85 to 94,85 to 94,4,20,0 to 29,"pest or weed control at 140 g/ha ([1]; Salsola tragus, post-emergence, 504 h, 140 g ai/ha, read-out: Visual Gorowth Reduction (%) 21 days After Application SASKR): 75 to 84%; pest or weed control at 140 g/ha ([2]; Veronica persica, post-emergence, 504 h, 140 g ai/ha, read-out: Visual Gorowth Reduction (%) 21 days After Application VERPE): 85 to 94%; pest or weed control at 140 g/ha ([3]; Viola tricolor, post-emergence, 504 h, 140 g ai/ha, read-out: Visual Gorowth Reduction (%) 21 days After Application VIOSS): 95 to 100%; pest or weed control at 140 g/ha ([4]; Triticum aestivum, post-emergence, 504 h, 140 g ai/ha, read-out: Visual Gorowth Reduction (%) 21 days After Application TRZSS): 75 to 84%; pest or weed control at 140 g/ha ([5]; Bassia scoparia, post-emergence, 504 h, 140 g ai/ha, read-out: Visual Gorowth Reduction (%) 21 days After Application KCHSC): 95 to 100%; pest or weed control at 70 g/ha [6, 13]: 30 to 44%; pest or weed control at 140 g/ha ([6]; Matricaria chamomilla, post-emergence, 504 h, 140 g ai/ha, read-out: Visual Gorowth Reduction (%) 21 days After Application MATSS): 30 to 44%; GR50 MATSS [6]: >140 g ai/ha; GR80 MATSS [6]: >140 g ai/ha; pest or weed control at 35 g/ha [7, 14]: 60 to 74%; pest or weed control at 70 g/ha [7, 14]: 75 to 84%; pest or weed control at 140 g/ha ([7]; Hordeum vulgare, post-emergence, 504 h, 140 g ai/ha, read-out: Visual Gorowth Reduction (%) 21 days After Application HORSS): 95 to 100%; GR20 HORSS [7]: 9 g ai/ha"
"Nc1c(F)c(-c2ccc(I)c(F)c2F)nc(C(=O)O)c1Cl [Compound 141, 4-amino-3-chloro-6-(2,3-difluoro-4-iodophenyl)-5-fluoropicolinic acid]",75 to 84,85 to 94,4,40,75 to 84,85 to 94,14,43,95 to 100,95 to 100,7,11,75 to 84,85 to 94,1,75 to 84,85 to 94,7,28,75 to 84,"pest or weed control at 70 g/ha [6, 13]: 95 to 100%; GR50 MATSS [6]: 15 g ai/ha; GR80 MATSS [6]: 33 g ai/ha; pest or weed control at 35 g/ha [7, 14]: 85 to 94%; pest or weed control at 70 g/ha [7, 14]: 95 to 100%; GR20 HORSS [7]: 1 g ai/ha"
Nc1c(F)c(-c2ccc(I)c(F)c2)nc(C(=O)O)c1Cl [Compound 157],75 to 84,85 to 94,11,34,30 to 44,60 to 74,50,>140,95 to 100,95 to 100,1,4,75 to 84,75 to 84,1,85 to 94,85 to 94,6,18,60 to 74,"pest or weed control at 70 g/ha [6, 13]: 75 to 84%; GR50 MATSS [6]: 21 g ai/ha; GR80 MATSS [6]: 64 g ai/ha; pest or weed control at 35 g/ha [7, 14]: 85 to 94%; pest or weed control at 70 g/ha [7, 14]: 95 to 100%; GR20 HORSS [7]: 1 g ai/ha"
Nc1c(F)c(-c2ccc(Br)cc2F)nc(C(=O)O)c1Cl [Compound 163],75 to 84,85 to 94,3,27,75 to 84,95 to 100,13,30,75 to 84,95 to 100,14,29,75 to 84,75 to 84,1,75 to 84,85 to 94,8,36,75 to 84,"pest or weed control at 70 g/ha [6, 13]: 95 to 100%; GR50 MATSS [6]: 5 g ai/ha; GR80 MATSS [6]: 24 g ai/ha; pest or weed control at 35 g/ha [7, 14]: 85 to 94%; pest or weed control at 70 g/ha [7, 14]: 95 to 100%; GR20 HORSS [7]: 1 g ai/ha"
